For 16 molecules, DC50 results are on record in BindingDB's records for patent US12384776 (Foghorn Therapeutics, 2025).

The experiment deals with T1, Bromodomain-containing protein 9 (Human, UniProt Q9H8M2).
T1 sequence (Q9H8M2 whole entry): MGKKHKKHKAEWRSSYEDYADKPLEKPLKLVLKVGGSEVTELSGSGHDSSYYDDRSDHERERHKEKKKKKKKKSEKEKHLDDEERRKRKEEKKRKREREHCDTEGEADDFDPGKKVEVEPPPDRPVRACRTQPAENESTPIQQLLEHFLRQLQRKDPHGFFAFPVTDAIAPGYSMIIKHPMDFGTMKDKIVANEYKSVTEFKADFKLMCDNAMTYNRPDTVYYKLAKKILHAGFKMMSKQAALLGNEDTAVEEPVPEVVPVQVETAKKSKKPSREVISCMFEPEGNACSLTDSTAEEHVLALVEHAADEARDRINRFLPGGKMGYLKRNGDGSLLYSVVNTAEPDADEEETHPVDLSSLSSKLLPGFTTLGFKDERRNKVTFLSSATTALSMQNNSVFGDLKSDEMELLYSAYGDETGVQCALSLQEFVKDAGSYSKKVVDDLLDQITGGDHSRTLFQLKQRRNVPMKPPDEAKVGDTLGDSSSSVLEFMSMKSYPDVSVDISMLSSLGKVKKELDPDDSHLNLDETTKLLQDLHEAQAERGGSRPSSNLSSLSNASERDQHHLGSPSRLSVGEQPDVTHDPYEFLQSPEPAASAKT
Description: SYO1 BRD9 NanoLuc Degradation Assay. The settings on record: read-out: IC50 (the source's name). How it is done:
A stable SYO-1 cell line expressing 3×FLAG-NLuc-BRD9 was generated. On day 0 cells were seeded in 30 μL media into each well of 384-well cell culture plates. The seeding density was 8000 cells/well. On day 1, cells were treated with 30 nL DMSO or 30 nL of 3-fold serially DMSO-diluted compounds (10 points in duplicates with 1 μM as final top dose). Subsequently plates were incubated for 6 hours in a standard tissue culture incubator and equilibrated at room temperature for 15 minutes. Nanoluciferase activity was measured by adding 15 μL of freshly prepared Nano-Glo Luciferase Assay Reagent (Promega N1130), shaking the plates for 10 minutes and reading the bioluminescence using an EnVision reader.
For the molecule `CNC(=O)N1CCc2c(-c3cc(OC)c(CN4CCN(C5CN(c6ccc7c(c6)C(=O)N(C6CCC(=O)NC6=O)C7=O)C5)CC4)c(OC)c3)cn(C)c(=O)c2C1` (stereo unspecified) [US12384776, Compound D164], the DC50 is under 0.01 µM. To `CNC(=O)N1CCc2c(-c3cc(OC)c(CN4CC5(CC(C#Cc6ccc7c(c6)C(=O)N(C6CCC(=O)NC6=O)C7=O)C5)C4)c(OC)c3)cn(C)c(=O)c2C1` (stereo unspecified) [US12384776, Compound D133] belongs under 0.01 µM; to `CNC(=O)N1CCc2c(-c3cc(OC)c(CN4CC5(CCN(c6ccc7c(c6)C(=O)N(C6CCC(=O)NC6=O)C7=O)CC5)C4)c(OC)c3)cn(C)c(=O)c2C1` (stereo unspecified) [US12384776, Compound D161], under 0.01 µM; to `CNC(=O)N1CCc2c(-c3cc(OC)c(CN4CCC5CN(c6ccc7c(c6)C(=O)N(C6CCC(=O)NC6=O)C7=O)C5C4)c(OC)c3)cn(C)c(=O)c2C1` (stereo unspecified) [US12384776, Compound D166], under 0.01 µM. To `CNC(=O)N1C=Cc2c(-c3cc(OC)c(CN4CCC(CN5CCC6(CC5)CN(c5ccc7c(c5)C(=O)N(C5CCC(=O)NC5=O)C7)C6)C(F)(F)C4)c(OC)c3)cn(C)c(=O)c2C1` (stereo unspecified) [US12384776, Compound D335] belongs under 0.01 µM; to `CNC(=O)N1CCc2c(-c3cc(OC)c(CN4CCN(CCC5CCN(c6ccc7c(c6)C(=O)N(C6CCC(=O)NC6=O)C7=O)CC5)CC4C(F)(F)F)c(OC)c3)cn(C)c(=O)c2C1` (stereo unspecified) [US12384776, Compound D97], under 0.01 µM. The value for `CNC(=O)N1CCc2c(-c3cc(OC)c(CN4CCC5(C4)CN(c4ccc6c(c4)C(=O)N(C4CCC(=O)NC4=O)C6=O)C5)c(OC)c3)cn(C)c(=O)c2C1` (stereo unspecified) [US12384776, Compound D165] was under 0.01 µM.

Regarding `CNC(=O)N1CCc2c(-c3cc(OC)c(CN4CCC5(CC4)CCN(c4ccc6c(c4)C(=O)N(C4CCC(=O)NC4=O)C6=O)C5)c(OC)c3)cn(C)c(=O)c2C1` (stereo unspecified) [US12384776, Compound D163], the DC50 is under 0.01 µM.

In the case of `CNC(=O)N1CCc2c(-c3cc(OC)c(CN4CCN(CCC5CCN(c6ccc7c(c6)C(=O)N(C6CCC(=O)NC6=O)C7=O)CC5)C(C)(C)C4)c(OC)c3)cn(C)c(=O)c2C1` (stereo unspecified) [US12384776, Compound D101], the DC50 is under 0.01 µM. The value for `CNC(=O)N1CCc2c(-c3cc(OC)c(CN4CCC5(CC4)CC(C#Cc4ccc6c(c4)C(=O)N(C4CCC(=O)NC4=O)C6=O)C5)c(OC)c3)cn(C)c(=O)c2C1` (stereo unspecified) [US12384776, Compound D134] was under 0.01 µM; that for `CNC(=O)N1CCc2c(-c3cc(OC)c(CN4CCC5(CC(C#Cc6ccc7c(c6)C(=O)N(C6CCC(=O)NC6=O)C7=O)C5)C4)c(OC)c3)cn(C)c(=O)c2C1` (stereo unspecified) [US12384776, Compound D135] was under 0.01 µM; that for `CNC(=O)N1CCc2c(-c3cc(OC)c(CN4CCC5C4CN5c4ccc5c(c4)C(=O)N(C4CCC(=O)NC4=O)C5=O)c(OC)c3)cn(C)c(=O)c2C1` (stereo unspecified) [US12384776, Compound D157] was under 0.01 µM. For `COc1cc(-c2cn(C)c(=O)c3c2CCN(C(=O)NC2CCC24CCN(CCOc2ccc5c(c2)C(=O)N(C2CCC(=O)NC2=O)C5=O)CC4)C3)cc(OC)c1CN(C)C` (stereo unspecified) [US12384776, Compound D239], the DC50 is over 0.01 µM. To `CNC(=O)N1CCc2c(-c3cc(OC)c(CN4CCC5(CC4)CN(c4ccc6c(c4)C(=O)N(C4CCC(=O)NC4=O)C6=O)C5)c(OC)c3)cn(C)c(=O)c2C1` (stereo unspecified) [US12384776, Compound D159] belongs under 0.01 µM; to `COc1cc(-c2cn(C)c(=O)c3c2CCN(C(=O)NCCOCCOCCNc2cccc4c2C(=O)N(C2CCC(=O)NC2=O)C4=O)C3)cc(OC)c1CN(C)C` (stereo unspecified) [US12384776, Compound D12], over 0.01 µM. Consider `CNC(=O)N1CCc2c(-c3cc(OC)c(CN4CCC5(CCN(c6ccc7c(c6)C(=O)N(C6CCC(=O)NC6=O)C7=O)C5)C4)c(OC)c3)cn(C)c(=O)c2C1` (stereo unspecified) [US12384776, Compound D162], for which the DC50 is under 0.01 µM.
